Data from ChEMBL document CHEMBL5356967, “Design, synthesis, evaluation and optimization of novel azole analogues as potent antifungal agents” (Bioorg Med Chem, 2024).
In brackets after ≈: the same amount, converted by molar mass. Activity calls are given as the source filed them. The calls are words filed in the database; no cut-off is given here.

How the values were obtained:
Candida albicans [1] = assay: Potency index, ratio of Ketoconazole MIC80 to test compound MIC80 for antifungal activity against Candida albicans SC5314 assessed as inhibition of fungal growth incubated for 24 hrs by broth microdilution method; type: functional
Candida albicans [2] = assay: Antifungal activity against Candida albicans Y0109 assessed as inhibition of fungal growth incubated for 24 hrs by broth microdilution method; type: functional
Candida albicans [3] = assay: Potency index, ratio of Fluconazole MIC80 to test compound MIC80 for antifungal activity against Candida albicans SC5314 assessed as inhibition of fungal growth incubated for 24 hrs by broth microdilution method; type: functional
Candida albicans [4] = assay: Potency index, ratio of Ketoconazole MIC80 to test compound MIC80 for antifungal activity against Candida albicans Y0109 assessed as inhibition of fungal growth incubated for 24 hrs by broth microdilution method; type: functional
Candida albicans [5] = assay: Antifungal activity against fluconazole-resistant Candida albicans 901 assessed as inhibition of fungal growth incubated for 24 hrs by broth microdilution method; type: functional
Aspergillus fumigatus = assay: Antifungal activity against Aspergillus fumigatus 0504656 assessed as inhibition of fungal growth incubated for 48 hrs by broth microdilution method; type: functional
Nannizzia gypsea = assay: Antifungal activity against Microsporum gypseum 0310388 assessed as inhibition of fungal growth incubated for 24 hrs by broth microdilution method; type: functional
Candida tropicalis [6] = assay: Antifungal activity against Candida tropicalis 0370354 assessed as inhibition of fungal growth incubated for 24 hrs by broth microdilution method; type: functional
Candida albicans [7] = assay: Antifungal activity against fluconazole-resistant Candida albicans 904 assessed as inhibition of fungal growth incubated for 24 hrs by broth microdilution method; type: functional
Trichophyton rubrum = assay: Antifungal activity against Trichophyton rubrum 0501124 assessed as inhibition of fungal growth incubated for 24 hrs by broth microdilution method; type: functional
Candida parapsilosis [8] = assay: Antifungal activity against Candida parapsilosis 0306392 assessed as inhibition of fungal growth incubated for 24 hrs by broth microdilution method; type: functional; conditions: Lodderomyces parapsilosis
NIH3T3 = assay: Cytotoxicity against mouse NIH/3T3 cells assessed as reduction in cell viability at below 16 microg/ml incubated for 24 hrs by CCK-8 assay; type: toxicity, cell-based; conditions: nih3t3, 24 h, dose < 16 µg/ml
Cryptococcus neoformans [9] = assay: Antifungal activity against Cryptococcus neoformans ATCCBLS108 assessed as inhibition of fungal growth incubated for 72 hrs by broth microdilution method; type: functional
Candida albicans [10] = assay: Potency index, ratio of Fluconazole MIC80 to test compound MIC80 for antifungal activity against Candida albicans Y0109 assessed as inhibition of fungal growth incubated for 24 hrs by broth microdilution method; type: functional
Candida albicans [11] = assay: Antifungal activity against Candida albicans SC5314 assessed as inhibition of fungal growth incubated for 24 hrs by broth microdilution method; type: functional
Candida parapsilosis [12] = assay: Potency index, ratio of Fluconazole MIC80 to test compound MIC80 for antifungal activity against Candida parapsilosis 0306392 assessed as inhibition of fungal growth incubated for 24 hrs by broth microdilution method; type: functional
Candida parapsilosis [13] = assay: Potency index, ratio of Itraconazole MIC80 to test compound MIC80 for antifungal activity against Candida parapsilosis 0306392 assessed as inhibition of fungal growth incubated for 24 hrs by broth microdilution method; type: functional
Candida parapsilosis [14] = assay: Potency index, ratio of Ketoconazole MIC80 to test compound MIC80 for antifungal activity against Candida parapsilosis 0306392 assessed as inhibition of fungal growth incubated for 24 hrs by broth microdilution method; type: functional
Candida albicans [15] = assay: Antifungal activity against fluconazole-resistant Candida albicans 901 assessed as inhibition of fungal growth at 4 ug/ml incubated for 48 hrs by spot assay; type: functional, organism-based; conditions: dose 4.0 µg/ml
Candida albicans [16] = assay: Antifungal activity against fluconazole-resistant Candida albicans 904 assessed as inhibition of fungal growth at 4 ug/ml incubated for 48 hrs by spot assay; type: functional, organism-based; conditions: dose 4.0 µg/ml
Candida parapsilosis [17] = assay: Antifungal activity against Candida parapsilosis 0306392 assessed as inhibition of fungal growth at 4 ug/ml incubated for 48 hrs by spot assay; type: functional, organism-based; conditions: dose 4.0 µg/ml
Candida tropicalis [18] = assay: Antifungal activity against Candida tropicalis 0370354 assessed as inhibition of fungal growth at 4 ug/ml incubated for 48 hrs by spot assay; type: functional, organism-based; conditions: dose 4.0 µg/ml
Cryptococcus neoformans [19] = assay: Antifungal activity against Cryptococcus neoformans ATCCBLS108 assessed as inhibition of fungal growth at 4 ug/ml incubated for 48 hrs by spot assay; type: functional, organism-based; conditions: dose 4.0 µg/ml
Candida albicans [20] = assay: Antifungal activity against Candida albicans SC5314 assessed as inhibition of fungal growth at 4 ug/ml incubated for 48 hrs by spot assay; type: functional, organism-based; conditions: dose 4.0 µg/ml

Q: `OCCC1CCN(CCc2cn(C[C@H]3CO[C@](Cn4ccnc4)(c4ccc(O)cc4F)O3)nn2)CC1` (mixture of isomers) was tested. Which Ratio (Candida albicans [1]) did it give?
A: 64

Q: And the MIC80 (Candida albicans [2])?
A: 0.016 µg/mL

Q: And the Ratio (Candida albicans [3])?
A: 16

Q: What about the Ratio (Candida albicans [4]) of the same molecule?
A: 64

Q: And the MIC80 (Candida albicans [5])?
A: 2 µg/mL

Q: What about the MIC80 (Aspergillus fumigatus) of the same molecule?
A: > 64 µg/mL

Q: And the MIC80 (Nannizzia gypsea)?
A: 0.25 µg/mL

Q: What about the MIC80 (Candida tropicalis [6]) of the same molecule?
A: 1 µg/mL

Q: And the MIC80 (Candida albicans [7])?
A: 16 µg/mL

Q: What about the MIC80 (Trichophyton rubrum) of the same molecule?
A: 0.125 µg/mL

Q: What about the MIC80 (Candida parapsilosis [8]) of the same molecule?
A: 0.125 µg/mL

Q: And the Activity (NIH3T3)?
A: Non-Toxic

Q: What about the MIC80 (Cryptococcus neoformans [9]) of the same molecule?
A: 0.125 µg/mL

Q: What about the Ratio (Candida albicans [10]) of the same molecule?
A: 16

Q: What about the MIC80 (Candida albicans [11]) of the same molecule?
A: 0.016 µg/mL

Q: Which results are given for `Oc1ccc([C@@]2(Cn3ccnc3)OC[C@H](Cn3cc(CCN4CCCCC4)nn3)O2)c(F)c1` (mixture of isomers)?
A: MIC80 (Candida albicans [2]): 0.063 µg/mL; MIC80 (Aspergillus fumigatus): > 64 µg/mL; Ratio (Candida parapsilosis [12]): 16; MIC80 (Nannizzia gypsea): 0.25 µg/mL; MIC80 (Candida tropicalis [6]): 0.125 µg/mL; Ratio (Candida parapsilosis [13]): 4; MIC80 (Trichophyton rubrum): 0.25 µg/mL; MIC80 (Candida parapsilosis [8]): 0.063 µg/mL; Ratio (Candida parapsilosis [14]): 32; MIC80 (Cryptococcus neoformans [9]): 0.063 µg/mL; MIC80 (Candida albicans [11]): 0.063 µg/mL

Q: Which results are given for `OCC1CCN(CCc2cn(C[C@H]3CO[C@](Cn4ccnc4)(c4ccc(O)cc4F)O3)nn2)CC1` (mixture of isomers)?
A: Ratio (Candida albicans [1]): 64; MIC80 (Candida albicans [2]): 0.016 µg/mL; Ratio (Candida albicans [3]): 16; Activity (Candida albicans [15]): Active; Ratio (Candida albicans [4]): 64; Activity (Candida albicans [16]): Active; MIC80 (Candida albicans [5]): 2 µg/mL; MIC80 (Aspergillus fumigatus): 16 µg/mL; Activity (Candida parapsilosis [17]): Active; Activity (Candida tropicalis [18]): Active; MIC80 (Nannizzia gypsea): 0.25 µg/mL; MIC80 (Candida tropicalis [6]): 0.063 µg/mL; MIC80 (Candida albicans [7]): 8 µg/mL; Activity (Cryptococcus neoformans [19]): Active; MIC80 (Trichophyton rubrum): 0.5 µg/mL; MIC80 (Candida parapsilosis [8]): 0.063 µg/mL; Activity (Candida albicans [20]): Active; Activity (NIH3T3): Non-Toxic; MIC80 (Cryptococcus neoformans [9]): 0.063 µg/mL; Ratio (Candida albicans [10]): 16; MIC80 (Candida albicans [11]): 0.016 µg/mL

Q: How did the MIC80 (Candida albicans [2]) turn out when `Oc1ccc([C@@]2(Cn3ccnc3)OC[C@H](Cn3cc(CCN4CCOCC4)nn3)O2)c(F)c1` (mixture of isomers) was run?
A: 0.063 µg/mL

Q: And the MIC80 (Aspergillus fumigatus)?
A: > 64 µg/mL

Q: And the Ratio (Candida parapsilosis [12])?
A: 16

Q: What about the MIC80 (Nannizzia gypsea) of the same molecule?
A: 0.25 µg/mL

Q: What about the MIC80 (Candida tropicalis [6]) of the same molecule?
A: 0.125 µg/mL

Q: And the Ratio (Candida parapsilosis [13])?
A: 4

Q: What about the MIC80 (Trichophyton rubrum) of the same molecule?
A: 0.5 µg/mL

Q: And the MIC80 (Candida parapsilosis [8])?
A: 0.125 µg/mL

Q: And the Ratio (Candida parapsilosis [14])?
A: 32

Q: What about the MIC80 (Cryptococcus neoformans [9]) of the same molecule?
A: 0.063 µg/mL

Q: What about the MIC80 (Candida albicans [11]) of the same molecule?
A: 0.063 µg/mL

Q: `OC(Cn1cncn1)(Cn1cncn1)c1ccc(F)cc1F` [FLUCONAZOLE] was tested. Which MIC80 (Candida albicans [2]) did it give?
A: 0.25 µg/mL (≈ 0.816 µM)

Q: What about the Activity (Candida albicans [15]) of the same molecule?
A: inactive

Q: What about the Activity (Candida albicans [16]) of the same molecule?
A: inactive

Q: What about the MIC80 (Candida albicans [5]) of the same molecule?
A: > 64 µg/mL

Q: And the MIC80 (Aspergillus fumigatus)?
A: > 64 µg/mL

Q: And the Activity (Candida parapsilosis [17])?
A: Active

Q: And the Activity (Candida tropicalis [18])?
A: Active

Q: What about the MIC80 (Nannizzia gypsea) of the same molecule?
A: 1 µg/mL (≈ 3.27 µM)

Q: What about the MIC80 (Candida tropicalis [6]) of the same molecule?
A: 16 µg/mL (≈ 52.2 µM)

Q: What about the MIC80 (Candida albicans [7]) of the same molecule?
A: > 64 µg/mL

Q: What about the Activity (Cryptococcus neoformans [19]) of the same molecule?
A: Active

Q: What about the MIC80 (Trichophyton rubrum) of the same molecule?
A: 4 µg/mL (≈ 13.1 µM)

Q: What about the MIC80 (Candida parapsilosis [8]) of the same molecule?
A: 1 µg/mL (≈ 3.27 µM)

Q: And the Activity (Candida albicans [20])?
A: Active

Q: And the MIC80 (Cryptococcus neoformans [9])?
A: 1 µg/mL (≈ 3.27 µM)

Q: What about the MIC80 (Candida albicans [11]) of the same molecule?
A: 0.25 µg/mL (≈ 0.816 µM)
